# Assay results reported in PubChem BioAssay AID1845202 (Molecular Pharmacology Branch, DTP, NCI, 2023).
# Tested on: DMS 114 tumor spheroids, viability % test/control
# Test: Anticancer human tumor DMS 114 cell line growth inhibition;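 note: spheroids exposed to compounds for 7 days before read-out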;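 for viability, T/C: luminescence used as a proxy for viable cells; 100% = DMSO vehicle control viability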
# Conditions: spheroids with HUVEC and MSC; for IC50: curve of first compound; for viability, T/C: stronger effect = lower value
# Method in brief: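 Single agents and combinations were tested on spheroids built from tumor cells plus HUVEC and hMSC, at half-log dilutions starting at or near clinical Cmax, else 10 microM; final DMSO 0.25% (v/v).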
# [1] = second compound 30 pM, first compound 0.00949 µM
# [2] = second compound 30 pM, first compound 0.03 µM
# [3] = second compound 30 pM, first compound 0.0949 µM
# [4] = second compound 30 pM, first compound 0.3 µM
# [5] = second compound 30 pM, first compound 0.949 µM
# [6] = second compound 30 pM, first compound 3 µM
# [7] = second compound 94.9 pM, first compound 0.00949 µM
# [8] = second compound 94.9 pM, first compound 0.03 µM
# [9] = second compound 94.9 pM, first compound 0.0949 µM
# [10] = second compound 94.9 pM, first compound 0.3 µM
# [11] = second compound 94.9 pM, first compound 0.949 µM
# [12] = second compound 94.9 pM, first compound 3 µM
# [13] = second compound 0.0003 µM, first compound 0.00949 µM
# [14] = second compound 0.0003 µM, first compound 0.03 µM
# [15] = second compound 0.0003 µM, first compound 0.0949 µM
# [16] = second compound 0.0003 µM, first compound 0.3 µM
# [17] = second compound 0.0003 µM, first compound 0.949 µM
# [18] = second compound 0.0003 µM, first compound 3 µM
# [19] = second compound 0.000949 µM, first compound 0.00949 µM
# [20] = second compound 0.000949 µM, first compound 0.03 µM
# [21] = second compound 0.000949 µM, first compound 0.0949 µM
# [22] = second compound 0.000949 µM, first compound 0.3 µM
# [23] = second compound 0.000949 µM, first compound 0.949 µM
# [24] = second compound 0.000949 µM, first compound 3 µM
# [25] = second compound 0.003 µM, first compound 0.00949 µM
# [26] = second compound 0.003 µM, first compound 0.03 µM
# [27] = second compound 0.003 µM, first compound 0.0949 µM
# [28] = second compound 0.003 µM, first compound 0.3 µM
# [29] = second compound 0.003 µM, first compound 0.949 µM
# [30] = second compound 0.003 µM, first compound 3 µM
Compound,IC50 (second compound 30 pM),IC50 (second compound 94.9 pM),IC50 (second compound 0.0003 µM),IC50 (second compound 0.000949 µM),IC50 (second compound 0.003 µM),"viability, T/C [1]","viability, T/C [2]","viability, T/C [3]","viability, T/C [4]","viability, T/C [5]","viability, T/C [6]","viability, T/C [7]","viability, T/C [8]","viability, T/C [9]","viability, T/C [10]","viability, T/C [11]","viability, T/C [12]","viability, T/C [13]","viability, T/C [14]","viability, T/C [15]",also measured
CNCc1ccc(-c2cc(-c3nc(-c4ccc(S(=O)(=O)C(C)C)cc4)cnc3N)on2)cc1 + COc1cc2c(cc1O)CCNC21CSC2c3c(OC(C)=O)c(C)c4c(c3C(COC1=O)N1C(O)C3Cc5cc(C)c(OC)c(O)c5C(C21)N3C)OCO4,115 nM,65 nM,< 9.49 nM,< 9.49 nM,< 9.49 nM,96.4%,94.3%,53.1%,20.8%,2.84%,0.19%,93.9%,70.5%,41.3%,12.2%,2.28%,0.17%,38.6%,28.3%,17.8%,"viability, T/C [16]: 11.7%; viability, T/C [17]: 1.89%; viability, T/C [18]: 0.25%; viability, T/C [19]: 4.46%; viability, T/C [20]: 4.77%; viability, T/C [21]: 3.57%; viability, T/C [22]: 3.71%; viability, T/C [23]: 0.67%; viability, T/C [24]: 0.15%; viability, T/C [25]: 0.28%; viability, T/C [26]: 0.28%; viability, T/C [27]: 0.31%; viability, T/C [28]: 0.26%; viability, T/C [29]: 0.23%; viability, T/C [30]: 0.25%"
Cn1ncnc1[C@H]1c2n[nH]c(=O)c3cc(F)cc(c23)N[C@@H]1c1ccc(F)cc1 + COc1cc2c(cc1O)CCNC21CSC2c3c(OC(C)=O)c(C)c4c(c3C(COC1=O)N1C(O)C3Cc5cc(C)c(OC)c(O)c5C(C21)N3C)OCO4,428 nM,104 nM,< 9.49 nM,< 9.49 nM,< 9.49 nM,91.6%,91%,78.4%,59.6%,29.9%,10.4%,79.2%,63.3%,54.6%,33.3%,16.5%,7.38%,21.8%,20.3%,17.8%,"viability, T/C [16]: 16.6%; viability, T/C [17]: 10.7%; viability, T/C [18]: 5.92%; viability, T/C [19]: 2.67%; viability, T/C [20]: 3.65%; viability, T/C [21]: 3.4%; viability, T/C [22]: 2.16%; viability, T/C [23]: 1.41%; viability, T/C [24]: 0.78%; viability, T/C [25]: 0.32%; viability, T/C [26]: 0.33%; viability, T/C [27]: 0.3%; viability, T/C [28]: 0.32%; viability, T/C [29]: 0.28%; viability, T/C [30]: 0.49%"
